In ChEMBL document CHEMBL1909046, “DrugMatrix in vitro pharmacology data”:

Legend:
[1] = target: T1, Thromboxane-A synthase (Homo sapiens, UniProt P24557); assay: biochemical; assay type: tissue-based, Platelet;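 also: enzyme inhibition assay with PGH2 supplied as substrate; in other assays of this panel Not Active means under 50% inhibition at 10 µM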
T1 sequence (P24557 whole entry): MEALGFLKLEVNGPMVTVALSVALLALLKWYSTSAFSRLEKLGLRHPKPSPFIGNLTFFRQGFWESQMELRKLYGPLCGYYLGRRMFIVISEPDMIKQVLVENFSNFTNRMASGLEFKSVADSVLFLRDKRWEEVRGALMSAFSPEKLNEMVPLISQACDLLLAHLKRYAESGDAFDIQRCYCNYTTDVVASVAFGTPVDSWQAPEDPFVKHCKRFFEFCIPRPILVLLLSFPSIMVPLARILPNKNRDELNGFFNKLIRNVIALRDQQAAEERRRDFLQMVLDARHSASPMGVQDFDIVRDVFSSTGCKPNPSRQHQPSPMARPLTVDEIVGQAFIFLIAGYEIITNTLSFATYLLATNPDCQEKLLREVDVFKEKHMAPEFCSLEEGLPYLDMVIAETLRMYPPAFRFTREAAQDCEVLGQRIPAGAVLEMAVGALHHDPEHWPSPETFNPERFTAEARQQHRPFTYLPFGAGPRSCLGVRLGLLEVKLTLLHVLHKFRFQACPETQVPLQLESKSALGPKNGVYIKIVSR

[2] = target: T2, Neuropeptide Y receptor type 1 (Homo sapiens, UniProt P25929); assay type: cell membranes, Membrane; conditions: sk-n-mc; also: in other assays of this panel Not Active means under 50% inhibition at 10 µM
T2 sequence (P25929 whole entry): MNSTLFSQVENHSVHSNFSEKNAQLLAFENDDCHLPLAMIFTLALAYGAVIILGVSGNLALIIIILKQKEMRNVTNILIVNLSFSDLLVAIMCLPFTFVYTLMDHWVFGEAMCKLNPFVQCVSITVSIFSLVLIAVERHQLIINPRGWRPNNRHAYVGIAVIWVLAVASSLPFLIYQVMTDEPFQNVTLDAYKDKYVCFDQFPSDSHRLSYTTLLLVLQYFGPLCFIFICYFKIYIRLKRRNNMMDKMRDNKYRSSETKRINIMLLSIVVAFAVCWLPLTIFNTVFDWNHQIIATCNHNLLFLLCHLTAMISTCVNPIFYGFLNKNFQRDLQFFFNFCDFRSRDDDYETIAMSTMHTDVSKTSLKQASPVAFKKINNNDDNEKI

[3] = target: Matrix metalloproteinase-9 (Homo sapiens, UniProt P14780); assay: biochemical; assay type: cell-based;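 also: inhibition of isolated MMP-9 enzyme activity toward a synthetic peptide substrate, from the DrugMatrix protease screening panel; in other assays of this panel Not Active means under 50% inhibition at 10 µM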
Sequence of Matrix metalloproteinase-9 (P14780 whole entry): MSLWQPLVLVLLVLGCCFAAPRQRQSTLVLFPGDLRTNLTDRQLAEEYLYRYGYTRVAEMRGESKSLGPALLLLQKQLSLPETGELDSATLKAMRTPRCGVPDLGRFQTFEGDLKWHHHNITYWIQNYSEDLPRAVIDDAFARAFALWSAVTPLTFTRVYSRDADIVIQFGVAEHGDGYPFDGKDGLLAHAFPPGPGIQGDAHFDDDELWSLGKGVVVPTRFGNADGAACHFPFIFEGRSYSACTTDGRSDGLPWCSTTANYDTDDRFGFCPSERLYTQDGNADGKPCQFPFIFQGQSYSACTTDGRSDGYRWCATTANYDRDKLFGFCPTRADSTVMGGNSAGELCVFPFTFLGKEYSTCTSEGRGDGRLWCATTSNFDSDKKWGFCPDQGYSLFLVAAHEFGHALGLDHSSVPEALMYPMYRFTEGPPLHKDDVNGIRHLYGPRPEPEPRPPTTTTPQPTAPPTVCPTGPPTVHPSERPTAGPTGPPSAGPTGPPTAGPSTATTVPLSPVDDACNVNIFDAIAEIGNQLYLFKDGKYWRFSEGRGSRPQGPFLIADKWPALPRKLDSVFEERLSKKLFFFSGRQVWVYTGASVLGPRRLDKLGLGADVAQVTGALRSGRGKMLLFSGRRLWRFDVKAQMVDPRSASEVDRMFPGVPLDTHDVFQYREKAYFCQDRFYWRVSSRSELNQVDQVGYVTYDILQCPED

[4] = target: Cytochrome P450 2C19 (Homo sapiens, UniProt P33261); conditions: bti-tn-5b1-4; also: in other assays of this panel Not Active means under 50% inhibition at 10 µM
Sequence of Cytochrome P450 2C19 (P33261 whole entry): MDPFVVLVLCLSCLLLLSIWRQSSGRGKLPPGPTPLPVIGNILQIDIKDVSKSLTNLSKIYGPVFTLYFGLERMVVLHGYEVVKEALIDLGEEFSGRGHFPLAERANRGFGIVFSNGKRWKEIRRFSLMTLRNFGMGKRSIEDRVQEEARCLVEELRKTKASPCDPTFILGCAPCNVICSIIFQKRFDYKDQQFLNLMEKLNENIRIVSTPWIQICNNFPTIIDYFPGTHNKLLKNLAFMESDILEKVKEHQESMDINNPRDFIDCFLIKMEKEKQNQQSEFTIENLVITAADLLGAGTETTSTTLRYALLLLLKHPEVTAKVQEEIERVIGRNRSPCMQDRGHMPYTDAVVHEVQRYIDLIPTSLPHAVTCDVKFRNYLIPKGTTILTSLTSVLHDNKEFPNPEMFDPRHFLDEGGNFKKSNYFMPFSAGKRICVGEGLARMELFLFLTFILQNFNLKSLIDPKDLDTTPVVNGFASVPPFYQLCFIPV

[5] = DRUGMATRIX: Glutamate, AMPA radioligand binding (ligand: [3H] AMPA); assay type: cell membranes, Rattus norvegicus, Wistar, Cerebral cortex, Membrane; conditions: Not Active = under 50% inhibition at 10 µM
[6] = target: T3, Angiotensin-converting enzyme (Oryctolagus cuniculus, UniProt P12822); assay type: tissue-based, Lung
T3 sequence (P12822 whole entry): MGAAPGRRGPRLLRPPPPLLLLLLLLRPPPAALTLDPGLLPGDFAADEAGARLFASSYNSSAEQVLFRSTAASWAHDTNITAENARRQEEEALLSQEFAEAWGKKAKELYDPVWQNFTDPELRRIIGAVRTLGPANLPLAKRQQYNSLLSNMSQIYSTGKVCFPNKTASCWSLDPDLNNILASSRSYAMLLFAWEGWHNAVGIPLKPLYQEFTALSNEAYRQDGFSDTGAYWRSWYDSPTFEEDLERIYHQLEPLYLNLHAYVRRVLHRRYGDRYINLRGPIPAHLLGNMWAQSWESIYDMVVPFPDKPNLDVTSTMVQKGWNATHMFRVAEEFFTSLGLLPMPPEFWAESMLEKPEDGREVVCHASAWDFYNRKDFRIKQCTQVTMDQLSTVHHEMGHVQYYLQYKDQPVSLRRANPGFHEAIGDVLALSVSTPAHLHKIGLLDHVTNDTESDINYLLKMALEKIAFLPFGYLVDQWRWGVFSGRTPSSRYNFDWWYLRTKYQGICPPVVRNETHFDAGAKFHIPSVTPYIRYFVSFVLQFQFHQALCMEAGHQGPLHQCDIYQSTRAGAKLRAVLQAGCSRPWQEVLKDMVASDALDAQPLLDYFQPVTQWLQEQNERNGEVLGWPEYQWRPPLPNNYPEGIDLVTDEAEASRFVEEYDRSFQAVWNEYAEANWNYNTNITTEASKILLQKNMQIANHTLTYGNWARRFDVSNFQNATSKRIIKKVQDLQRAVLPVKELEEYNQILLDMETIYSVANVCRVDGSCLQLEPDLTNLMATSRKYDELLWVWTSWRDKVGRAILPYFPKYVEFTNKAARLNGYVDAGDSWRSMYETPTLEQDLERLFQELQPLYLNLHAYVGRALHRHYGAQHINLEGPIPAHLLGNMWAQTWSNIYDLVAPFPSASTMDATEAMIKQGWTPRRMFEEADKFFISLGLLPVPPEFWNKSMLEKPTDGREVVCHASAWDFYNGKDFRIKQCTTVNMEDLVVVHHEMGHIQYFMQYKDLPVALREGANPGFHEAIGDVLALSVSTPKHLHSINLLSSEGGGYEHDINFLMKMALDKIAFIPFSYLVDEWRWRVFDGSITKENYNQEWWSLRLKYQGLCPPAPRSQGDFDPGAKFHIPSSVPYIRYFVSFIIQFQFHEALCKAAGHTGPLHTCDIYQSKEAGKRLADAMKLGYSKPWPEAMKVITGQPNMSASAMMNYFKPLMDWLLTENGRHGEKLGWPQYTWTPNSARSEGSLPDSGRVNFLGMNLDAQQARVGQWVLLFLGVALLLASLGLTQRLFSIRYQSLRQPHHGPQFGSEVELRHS

[7] = target: Cytochrome P450 2D6 (Homo sapiens, UniProt P10635); conditions: bti-tn-5b1-4; also: in other assays of this panel Not Active means under 50% inhibition at 10 µM
Sequence of Cytochrome P450 2D6 (P10635 whole entry): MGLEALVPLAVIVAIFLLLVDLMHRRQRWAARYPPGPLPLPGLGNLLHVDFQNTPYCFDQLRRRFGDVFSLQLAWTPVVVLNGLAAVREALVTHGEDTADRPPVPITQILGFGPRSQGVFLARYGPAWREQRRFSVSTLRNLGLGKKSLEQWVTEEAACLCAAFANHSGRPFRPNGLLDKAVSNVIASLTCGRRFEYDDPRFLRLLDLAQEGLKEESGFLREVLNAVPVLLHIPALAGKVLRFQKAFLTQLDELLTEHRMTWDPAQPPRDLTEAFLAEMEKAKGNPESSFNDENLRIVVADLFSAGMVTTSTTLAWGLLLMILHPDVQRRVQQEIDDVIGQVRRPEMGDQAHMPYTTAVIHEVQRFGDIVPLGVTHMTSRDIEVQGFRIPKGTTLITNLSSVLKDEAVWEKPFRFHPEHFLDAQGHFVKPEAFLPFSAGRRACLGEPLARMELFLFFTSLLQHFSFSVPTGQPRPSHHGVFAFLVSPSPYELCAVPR

Compound	IC50 ([1]; read-out: IC50) [µM]	IC50 [2]	IC50 [3]	IC50 [4]	Ki [4]	IC50 [5]	Ki [5]	IC50 [6]	IC50 ([1]; platelet)	IC50 [7]	Ki [7]
CC(C)CN(C[C@@H](O)[C@H](Cc1ccccc1)NC(=O)O[C@H]1CCOC1)S(=O)(=O)c1ccc(N)cc1	6.73	Not Active	Not Active	Not Active	Not Active	Not Active	Not Active	Not Active			
CN(C)c1nc(N(C)C)nc(N(C)C)n1 [ALTRETAMINE]		Not Active	Not Active			Not Active	Not Active	Not Active	Not Active		
Nc1c(Br)cc(Br)cc1CN[C@H]1CC[C@H](O)CC1 [AMBROXOL]		Not Active	Not Active			Not Active	Not Active	Not Active	Not Active		
Nc1ncn([C@@H]2O[C@H](CO)[C@@H](O)[C@H]2O)c(=O)n1 [AZACITIDINE]		Not Active	Not Active			Not Active	Not Active	Not Active	Not Active	Not Active	Not Active
CN(C)C(=O)Oc1cc(OC(=O)N(C)C)cc(C(O)CNC(C)(C)C)c1 (centres undefined) [BAMBUTEROL]		Not Active	Not Active	Not Active	Not Active	Not Active	Not Active	Not Active	Not Active		
CC(NC(C)(C)C)C(=O)c1cccc(Cl)c1 (centres undefined) [BUPROPION]		Not Active	Not Active			Not Active	Not Active	Not Active	Not Active	Not Active	Not Active
CN(Cc1ccc(C(C)(C)C)cc1)Cc1cccc2ccccc12 [BUTENAFINE]		Not Active	Not Active	Not Active	Not Active	Not Active	Not Active	Not Active	Not Active		
C[C@H](CS)C(=O)N1CCC[C@H]1C(=O)O [CAPTOPRIL]		Not Active	Not Active	Not Active	Not Active	Not Active	Not Active		Not Active	Not Active	Not Active
Cc1ccc(-c2cc(C(F)(F)F)nn2-c2ccc(S(N)(=O)=O)cc2)cc1 [CELECOXIB]		Not Active	Not Active	Not Active	Not Active	Not Active	Not Active	Not Active	Not Active		
CN(C)CCCN1c2ccccc2Sc2ccc(Cl)cc21 [CHLORPROMAZINE]		Not Active	Not Active			Not Active	Not Active	Not Active	Not Active		
C[C@H](CCC(=O)O)[C@H]1CC[C@H]2[C@@H]3[C@H](O)C[C@@H]4C[C@H](O)CC[C@]4(C)[C@H]3C[C@H](O)[C@]12C [CHOLIC ACID]		Not Active	Not Active			Not Active	Not Active	Not Active	Not Active	Not Active	Not Active
CC(C)(Oc1ccc(Cl)cc1)C(=O)O [CLOFIBRIC ACID]		Not Active	Not Active			Not Active	Not Active	Not Active	Not Active		
CC(C)[C@@]1(NC(=O)[C@@H]2C[C@@H]3c4cccc5[nH]cc(c45)C[C@H]3N(C)C2)O[C@@]2(O)[C@@H]3CCCN3C(=O)[C@H](Cc3ccccc3)N2C1=O.CS(=O)(=O)O [DIHYDROERGOCRISTINE MESYLATE]		Not Active	Not Active			Not Active	Not Active	Not Active	Not Active	Not Active	Not Active
C[C@]12CC[C@@H]3c4ccc(O)cc4CC[C@H]3[C@@H]1CCC2=O [ESTRONE]		Not Active	Not Active			Not Active	Not Active	Not Active	Not Active		
N=C(N)NCCN1CCCCCCC1 [GUANETHIDINE]		Not Active	Not Active			Not Active	Not Active	Not Active	Not Active		
CCCCN1CCCC[C@H]1C(=O)Nc1c(C)cccc1C [LEVOBUPIVACAINE]		Not Active	Not Active	Not Active	Not Active	Not Active	Not Active	Not Active	Not Active		
COCCc1ccc(OCC(O)CNC(C)C)cc1 (centres undefined) [METOPROLOL]		Not Active	Not Active			Not Active	Not Active	Not Active	Not Active	Not Active	Not Active
CCn1cc(C(=O)O)c(=O)c2cc(F)c(N3CCNCC3)cc21 [NORFLOXACIN]		Not Active	Not Active			Not Active	Not Active	Not Active	Not Active	Not Active	Not Active
CC1(C)S[C@@H]2[C@H](NC(=O)Cc3ccccc3)C(=O)N2[C@H]1C(=O)O [PENICILLIN G]		Not Active	Not Active			Not Active	Not Active	Not Active	Not Active		
CCCN1C[C@H](CSC)C[C@@H]2c3cccc4[nH]cc(c34)C[C@H]21 [PERGOLIDE]		Not Active	Not Active	Not Active	Not Active	Not Active	Not Active	Not Active	Not Active		
C1CCC(C(CC2CCCCN2)C2CCCCC2)CC1 (centres undefined) [PERHEXILINE]		Not Active	Not Active	Not Active	Not Active	Not Active	Not Active	Not Active	Not Active		
Cc1ccc(N(CC2=NCCN2)c2cccc(O)c2)cc1 [PHENTOLAMINE]		Not Active	Not Active	Not Active	Not Active	Not Active	Not Active	Not Active	Not Active		
CN(C)CCCN1c2ccccc2Sc2ccccc21 [PROMAZINE]		Not Active	Not Active			Not Active	Not Active	Not Active	Not Active		
